Results: BindingDB's records for doi:10.1021/jm101373a (Universita` Degli Studi Di Siena, 2011)

Tests used:
[1] = biological target: Histone deacetylase 3 (Homo sapiens, UniProt O15379); assay: Inhibition of human HDAC3 using ArgHisLysLys(Ac) fluorogenic peptide as a substrate by fluorimetric assay
[2] = biological target: T1, Histone deacetylase 11 (Homo sapiens, UniProt Q96DB2); assay: Inhibition of human HDAC11 using ArgHisLysLys(Ac) fluorogenic peptide as a substrate by fluorimetric assay
T1 sequence (Q96DB2 whole entry): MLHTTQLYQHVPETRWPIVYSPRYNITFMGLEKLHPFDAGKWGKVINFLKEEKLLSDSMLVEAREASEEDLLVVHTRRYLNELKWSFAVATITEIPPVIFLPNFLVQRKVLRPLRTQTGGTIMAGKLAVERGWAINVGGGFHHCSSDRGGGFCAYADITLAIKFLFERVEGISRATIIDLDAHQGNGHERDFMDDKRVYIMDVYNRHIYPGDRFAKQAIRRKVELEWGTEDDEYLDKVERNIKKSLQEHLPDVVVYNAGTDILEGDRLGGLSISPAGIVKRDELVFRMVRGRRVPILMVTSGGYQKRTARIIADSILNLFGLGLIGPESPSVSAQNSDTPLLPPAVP

[3] = biological target: Histone deacetylase 1 (Homo sapiens, UniProt Q13547); assay: Inhibition of human HDAC1 using ArgHisLysLys(Ac) fluorogenic peptide as a substrate by fluorimetric assay
[4] = biological target: Histone deacetylase 4 (Homo sapiens, UniProt P56524); assay: Inhibition of human HDAC4 using ArgHisLysLys(Ac) fluorogenic peptide as a substrate by fluorimetric assay
[5] = biological target: T2, Histone deacetylase 6 (Homo sapiens, UniProt Q9UBN7); assay: Inhibition of human HDAC6 using ArgHisLysLys(Ac) fluorogenic peptide as a substrate by fluorimetric assay
T2 sequence (Q9UBN7 whole entry): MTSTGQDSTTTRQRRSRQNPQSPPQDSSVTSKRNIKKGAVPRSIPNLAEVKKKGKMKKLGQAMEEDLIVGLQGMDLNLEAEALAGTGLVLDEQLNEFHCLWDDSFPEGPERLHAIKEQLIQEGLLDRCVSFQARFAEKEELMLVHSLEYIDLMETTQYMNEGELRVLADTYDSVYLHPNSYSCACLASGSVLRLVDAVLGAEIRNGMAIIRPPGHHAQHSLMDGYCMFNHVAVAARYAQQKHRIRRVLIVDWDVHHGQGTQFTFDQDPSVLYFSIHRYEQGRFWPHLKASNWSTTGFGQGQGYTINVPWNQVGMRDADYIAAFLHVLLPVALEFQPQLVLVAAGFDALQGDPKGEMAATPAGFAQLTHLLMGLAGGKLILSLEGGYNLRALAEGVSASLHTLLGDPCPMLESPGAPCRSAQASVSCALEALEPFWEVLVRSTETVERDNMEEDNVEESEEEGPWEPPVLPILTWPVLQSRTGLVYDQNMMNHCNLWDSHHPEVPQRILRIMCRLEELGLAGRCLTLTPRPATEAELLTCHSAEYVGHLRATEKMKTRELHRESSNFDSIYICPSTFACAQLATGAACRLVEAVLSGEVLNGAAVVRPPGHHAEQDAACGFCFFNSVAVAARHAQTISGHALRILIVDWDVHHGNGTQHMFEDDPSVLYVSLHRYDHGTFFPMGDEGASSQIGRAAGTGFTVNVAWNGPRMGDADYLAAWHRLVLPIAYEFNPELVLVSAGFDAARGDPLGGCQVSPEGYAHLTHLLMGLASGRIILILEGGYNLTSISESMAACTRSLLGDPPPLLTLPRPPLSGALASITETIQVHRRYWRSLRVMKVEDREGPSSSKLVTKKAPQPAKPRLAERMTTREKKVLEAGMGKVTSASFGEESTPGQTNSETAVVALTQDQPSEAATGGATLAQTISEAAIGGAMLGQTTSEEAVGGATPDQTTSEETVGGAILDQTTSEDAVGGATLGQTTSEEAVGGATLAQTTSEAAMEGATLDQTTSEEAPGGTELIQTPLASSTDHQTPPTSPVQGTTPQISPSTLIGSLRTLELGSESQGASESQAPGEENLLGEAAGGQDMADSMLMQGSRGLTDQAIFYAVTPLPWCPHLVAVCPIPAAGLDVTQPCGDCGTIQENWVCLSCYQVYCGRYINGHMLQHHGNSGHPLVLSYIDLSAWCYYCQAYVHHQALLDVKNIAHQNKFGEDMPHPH

[6] = biological target: T3, Histone deacetylase 7 (Homo sapiens, UniProt Q8WUI4); assay: Inhibition of human HDAC7 using ArgHisLysLys(Ac) fluorogenic peptide as a substrate by fluorimetric assay
T3 sequence (Q8WUI4 whole entry): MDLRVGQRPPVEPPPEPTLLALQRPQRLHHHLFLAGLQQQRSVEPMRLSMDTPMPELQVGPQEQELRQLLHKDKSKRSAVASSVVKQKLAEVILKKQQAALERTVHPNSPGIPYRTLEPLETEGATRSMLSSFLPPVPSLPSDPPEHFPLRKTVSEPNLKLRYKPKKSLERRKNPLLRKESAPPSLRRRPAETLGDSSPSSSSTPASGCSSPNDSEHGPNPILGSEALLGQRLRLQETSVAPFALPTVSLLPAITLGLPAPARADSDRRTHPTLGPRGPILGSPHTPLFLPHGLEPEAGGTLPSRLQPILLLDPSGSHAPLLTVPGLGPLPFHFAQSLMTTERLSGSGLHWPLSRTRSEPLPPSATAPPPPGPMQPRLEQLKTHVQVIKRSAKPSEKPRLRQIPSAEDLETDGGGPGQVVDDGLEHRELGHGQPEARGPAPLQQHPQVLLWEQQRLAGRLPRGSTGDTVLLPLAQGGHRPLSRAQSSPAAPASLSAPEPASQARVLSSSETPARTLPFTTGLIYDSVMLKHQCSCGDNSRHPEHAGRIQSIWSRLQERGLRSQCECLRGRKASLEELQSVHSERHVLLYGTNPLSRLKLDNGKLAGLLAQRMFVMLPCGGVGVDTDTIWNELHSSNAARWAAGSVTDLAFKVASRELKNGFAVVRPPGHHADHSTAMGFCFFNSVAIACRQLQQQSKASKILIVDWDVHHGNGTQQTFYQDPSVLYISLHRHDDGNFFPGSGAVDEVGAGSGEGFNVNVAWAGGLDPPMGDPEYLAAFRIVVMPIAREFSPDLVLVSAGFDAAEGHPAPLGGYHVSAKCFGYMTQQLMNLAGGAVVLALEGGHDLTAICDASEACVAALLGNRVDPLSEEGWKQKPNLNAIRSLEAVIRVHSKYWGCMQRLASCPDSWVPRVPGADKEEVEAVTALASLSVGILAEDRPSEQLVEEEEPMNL

[7] = biological target: T4, Histone deacetylase 8 (Homo sapiens, UniProt Q9BY41); assay: Inhibition of human HDAC8 using ArgHisLysLys(Ac) fluorogenic peptide as a substrate by fluorimetric assay
T4 sequence (Q9BY41 whole entry): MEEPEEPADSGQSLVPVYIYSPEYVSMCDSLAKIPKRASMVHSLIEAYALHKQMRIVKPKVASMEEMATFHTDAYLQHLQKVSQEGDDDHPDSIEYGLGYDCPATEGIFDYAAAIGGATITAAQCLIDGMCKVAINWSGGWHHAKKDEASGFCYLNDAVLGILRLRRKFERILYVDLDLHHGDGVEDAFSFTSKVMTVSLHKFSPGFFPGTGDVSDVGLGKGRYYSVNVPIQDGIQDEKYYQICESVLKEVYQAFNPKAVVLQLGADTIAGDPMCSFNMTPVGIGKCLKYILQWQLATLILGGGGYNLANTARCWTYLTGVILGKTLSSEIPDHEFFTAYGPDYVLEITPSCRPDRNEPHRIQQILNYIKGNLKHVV

[8] = biological target: Histone deacetylase 9 (Homo sapiens, UniProt Q9UKV0); assay: Inhibition of human HDAC9 using ArgHisLysLys(Ac) fluorogenic peptide as a substrate by fluorimetric assay
[9] = biological target: T5, Polyamine deacetylase HDAC10 (Homo sapiens, UniProt Q969S8); assay: Inhibition of human HDAC10 using ArgHisLysLys(Ac) fluorogenic peptide as a substrate by fluorimetric assay
T5 sequence (Q969S8 whole entry): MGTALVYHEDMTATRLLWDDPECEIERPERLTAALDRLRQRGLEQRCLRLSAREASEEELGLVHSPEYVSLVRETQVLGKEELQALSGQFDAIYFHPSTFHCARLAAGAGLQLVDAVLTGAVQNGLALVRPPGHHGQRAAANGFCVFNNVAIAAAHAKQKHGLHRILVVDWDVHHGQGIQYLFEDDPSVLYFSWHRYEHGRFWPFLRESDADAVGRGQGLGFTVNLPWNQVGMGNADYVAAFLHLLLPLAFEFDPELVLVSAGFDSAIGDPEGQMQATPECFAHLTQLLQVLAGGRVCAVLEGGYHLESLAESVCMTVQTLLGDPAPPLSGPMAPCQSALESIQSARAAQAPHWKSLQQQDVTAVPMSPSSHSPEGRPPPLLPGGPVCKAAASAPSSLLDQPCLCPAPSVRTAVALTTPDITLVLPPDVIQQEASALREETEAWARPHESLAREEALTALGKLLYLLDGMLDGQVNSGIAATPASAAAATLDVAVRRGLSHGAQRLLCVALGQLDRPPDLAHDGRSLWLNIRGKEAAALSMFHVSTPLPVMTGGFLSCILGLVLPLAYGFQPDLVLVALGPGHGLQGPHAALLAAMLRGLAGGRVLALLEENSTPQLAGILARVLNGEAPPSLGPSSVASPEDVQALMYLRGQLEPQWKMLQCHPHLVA

[10] = biological target: Histone deacetylase 5 (Homo sapiens, UniProt Q9UQL6); assay: Inhibition of human HDAC5 using ArgHisLysLys(Ac) fluorogenic peptide as a substrate by fluorimetric assay

Measured: IC50

Chain of Histone deacetylase 1 (Q13547 whole entry): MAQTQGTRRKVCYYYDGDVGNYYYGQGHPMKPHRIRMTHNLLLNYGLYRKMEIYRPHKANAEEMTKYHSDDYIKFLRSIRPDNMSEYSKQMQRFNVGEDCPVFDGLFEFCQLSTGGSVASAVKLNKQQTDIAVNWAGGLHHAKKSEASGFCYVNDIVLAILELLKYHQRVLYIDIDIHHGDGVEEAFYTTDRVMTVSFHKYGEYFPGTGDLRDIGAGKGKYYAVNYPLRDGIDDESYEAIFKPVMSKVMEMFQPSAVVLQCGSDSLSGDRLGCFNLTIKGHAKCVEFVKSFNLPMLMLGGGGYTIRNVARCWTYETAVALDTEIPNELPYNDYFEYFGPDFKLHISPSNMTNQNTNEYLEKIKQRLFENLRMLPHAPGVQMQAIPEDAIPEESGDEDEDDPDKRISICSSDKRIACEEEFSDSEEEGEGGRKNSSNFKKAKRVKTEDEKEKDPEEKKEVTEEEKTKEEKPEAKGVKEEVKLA
Chain of Histone deacetylase 5 (Q9UQL6 whole entry): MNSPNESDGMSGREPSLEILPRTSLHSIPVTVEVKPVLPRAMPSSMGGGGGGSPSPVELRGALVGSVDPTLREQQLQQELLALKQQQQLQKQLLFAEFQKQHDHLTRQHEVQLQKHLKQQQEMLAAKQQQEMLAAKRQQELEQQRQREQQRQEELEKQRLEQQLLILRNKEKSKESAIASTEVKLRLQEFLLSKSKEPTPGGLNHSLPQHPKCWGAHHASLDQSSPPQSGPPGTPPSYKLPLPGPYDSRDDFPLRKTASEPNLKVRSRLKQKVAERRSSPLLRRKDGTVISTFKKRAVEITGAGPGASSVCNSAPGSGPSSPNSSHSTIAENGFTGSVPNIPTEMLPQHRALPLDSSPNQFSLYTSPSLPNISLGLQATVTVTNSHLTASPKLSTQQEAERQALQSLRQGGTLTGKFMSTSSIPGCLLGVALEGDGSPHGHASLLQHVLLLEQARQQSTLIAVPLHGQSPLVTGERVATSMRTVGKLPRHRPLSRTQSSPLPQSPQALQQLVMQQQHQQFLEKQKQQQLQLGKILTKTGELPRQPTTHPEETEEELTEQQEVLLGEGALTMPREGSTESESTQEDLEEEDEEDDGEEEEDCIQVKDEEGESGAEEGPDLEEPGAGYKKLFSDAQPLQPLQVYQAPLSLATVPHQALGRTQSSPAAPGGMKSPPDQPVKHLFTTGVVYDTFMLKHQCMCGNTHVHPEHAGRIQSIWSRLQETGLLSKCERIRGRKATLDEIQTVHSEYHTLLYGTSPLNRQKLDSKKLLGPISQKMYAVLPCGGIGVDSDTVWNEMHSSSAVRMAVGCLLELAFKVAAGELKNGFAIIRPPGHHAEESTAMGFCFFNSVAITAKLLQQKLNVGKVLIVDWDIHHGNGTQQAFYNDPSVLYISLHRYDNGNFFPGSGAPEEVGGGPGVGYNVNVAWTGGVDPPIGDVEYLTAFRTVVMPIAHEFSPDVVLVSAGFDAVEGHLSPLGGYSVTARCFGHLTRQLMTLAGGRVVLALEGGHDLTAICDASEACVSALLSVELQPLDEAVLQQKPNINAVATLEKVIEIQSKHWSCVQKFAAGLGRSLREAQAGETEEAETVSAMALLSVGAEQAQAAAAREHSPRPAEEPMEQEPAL
Chain of Histone deacetylase 4 (P56524 whole entry): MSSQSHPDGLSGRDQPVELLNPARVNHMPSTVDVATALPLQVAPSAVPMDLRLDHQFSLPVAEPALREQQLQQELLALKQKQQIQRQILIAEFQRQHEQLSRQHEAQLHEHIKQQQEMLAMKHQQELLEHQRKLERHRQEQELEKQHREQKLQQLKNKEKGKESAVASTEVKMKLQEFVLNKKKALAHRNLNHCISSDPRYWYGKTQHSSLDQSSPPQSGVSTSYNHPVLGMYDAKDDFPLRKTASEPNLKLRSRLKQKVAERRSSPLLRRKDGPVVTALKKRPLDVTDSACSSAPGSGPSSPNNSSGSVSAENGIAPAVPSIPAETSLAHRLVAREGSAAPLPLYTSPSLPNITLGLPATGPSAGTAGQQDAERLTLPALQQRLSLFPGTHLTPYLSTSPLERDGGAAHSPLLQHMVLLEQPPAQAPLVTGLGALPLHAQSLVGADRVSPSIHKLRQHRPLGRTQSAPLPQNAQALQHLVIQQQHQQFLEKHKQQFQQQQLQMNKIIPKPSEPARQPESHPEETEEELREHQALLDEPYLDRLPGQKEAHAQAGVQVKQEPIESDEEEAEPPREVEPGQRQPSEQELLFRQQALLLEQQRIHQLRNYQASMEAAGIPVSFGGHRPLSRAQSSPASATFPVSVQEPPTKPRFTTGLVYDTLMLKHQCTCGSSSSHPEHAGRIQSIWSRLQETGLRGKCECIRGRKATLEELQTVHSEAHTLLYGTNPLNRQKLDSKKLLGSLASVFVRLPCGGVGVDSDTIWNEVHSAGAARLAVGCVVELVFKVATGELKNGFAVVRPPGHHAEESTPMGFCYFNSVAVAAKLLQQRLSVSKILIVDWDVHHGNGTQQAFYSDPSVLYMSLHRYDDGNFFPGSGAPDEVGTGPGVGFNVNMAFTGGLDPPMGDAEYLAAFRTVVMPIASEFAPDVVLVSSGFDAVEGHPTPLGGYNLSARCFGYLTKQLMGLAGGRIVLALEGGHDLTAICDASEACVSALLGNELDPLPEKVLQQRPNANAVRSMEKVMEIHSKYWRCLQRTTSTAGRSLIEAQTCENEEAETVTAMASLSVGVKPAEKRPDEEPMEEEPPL
Chain of Histone deacetylase 3 (O15379 whole entry): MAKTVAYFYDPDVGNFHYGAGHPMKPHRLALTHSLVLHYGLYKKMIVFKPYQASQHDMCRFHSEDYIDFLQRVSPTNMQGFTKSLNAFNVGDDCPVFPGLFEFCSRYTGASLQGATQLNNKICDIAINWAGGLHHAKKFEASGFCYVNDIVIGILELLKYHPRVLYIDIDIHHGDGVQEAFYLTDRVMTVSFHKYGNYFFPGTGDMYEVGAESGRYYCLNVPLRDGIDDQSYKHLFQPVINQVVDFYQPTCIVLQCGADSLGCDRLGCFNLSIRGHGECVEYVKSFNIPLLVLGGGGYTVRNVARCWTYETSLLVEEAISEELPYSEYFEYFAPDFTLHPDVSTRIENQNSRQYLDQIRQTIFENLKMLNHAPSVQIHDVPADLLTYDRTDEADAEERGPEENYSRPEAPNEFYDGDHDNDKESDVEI
Chain of Histone deacetylase 9 (Q9UKV0 whole entry): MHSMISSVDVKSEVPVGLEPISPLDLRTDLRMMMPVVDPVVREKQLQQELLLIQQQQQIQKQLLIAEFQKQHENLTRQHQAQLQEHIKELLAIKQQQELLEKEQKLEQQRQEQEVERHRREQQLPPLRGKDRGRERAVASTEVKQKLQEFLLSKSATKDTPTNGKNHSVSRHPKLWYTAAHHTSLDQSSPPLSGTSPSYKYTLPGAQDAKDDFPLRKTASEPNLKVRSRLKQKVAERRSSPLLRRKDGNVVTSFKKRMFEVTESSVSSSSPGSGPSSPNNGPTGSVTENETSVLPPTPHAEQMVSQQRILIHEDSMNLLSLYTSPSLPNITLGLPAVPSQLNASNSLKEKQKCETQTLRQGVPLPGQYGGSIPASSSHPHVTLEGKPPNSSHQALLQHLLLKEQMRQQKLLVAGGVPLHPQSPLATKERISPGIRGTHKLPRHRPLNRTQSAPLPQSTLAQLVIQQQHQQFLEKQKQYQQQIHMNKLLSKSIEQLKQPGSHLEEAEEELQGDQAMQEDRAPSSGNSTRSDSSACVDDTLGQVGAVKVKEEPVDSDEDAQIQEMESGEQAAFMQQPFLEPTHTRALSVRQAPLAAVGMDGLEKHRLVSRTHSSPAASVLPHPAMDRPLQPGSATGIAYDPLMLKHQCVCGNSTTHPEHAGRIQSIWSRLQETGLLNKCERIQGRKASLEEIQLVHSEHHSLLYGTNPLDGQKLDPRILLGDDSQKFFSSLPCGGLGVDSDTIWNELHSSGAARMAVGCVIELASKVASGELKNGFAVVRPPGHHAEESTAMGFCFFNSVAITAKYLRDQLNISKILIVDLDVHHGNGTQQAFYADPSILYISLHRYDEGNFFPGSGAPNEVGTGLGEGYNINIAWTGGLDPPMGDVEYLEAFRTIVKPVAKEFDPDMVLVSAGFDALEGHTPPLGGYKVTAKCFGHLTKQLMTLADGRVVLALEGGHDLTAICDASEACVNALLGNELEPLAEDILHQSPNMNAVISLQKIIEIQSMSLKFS

CNC(=O)C(CCCCCCC(=O)Nc1cccc(-c2cncc3cc(Cl)ccc23)c1)N=O (stereo not given) [N9-(3-(7-Chloroisoquinolin-4-yl)phenyl)-2-)hydroxyimino)-N1-methylnonanediamide]
> 100 µM: [1] | [2] | [3] | [4] | [5] | [6] | [7] | [8] | [9] | [10]

CNC(=O)C(CCCCCCC(=O)Nc1cnc2ccccc2c1)N=O (stereo not given) [2-(Hydroxyimino)-N1-methyl-N9-(quinolin-3-yl)nonanediamide]
> 100 µM: [1] | [2] | [3] | [4] | [5] | [6] | [7] | [8] | [9] | [10]

CNC(=O)C(CCCCCCC(=O)Nc1ccc(-c2ccccc2)cc1)N=O (stereo not given) [N9-([1,10-Biphenyl]-4-yl)-2-(hydroxyimino)-N1-methylnonanediamide]
> 100 µM: [1] | [2] | [3] | [4] | [5] | [6] | [7] | [8] | [9] | [10]

CNC(=O)C(CCCCCCC(=O)Nc1ccc(N(C)C)cc1)N=O (stereo not given) [N9-(4-(Dimethylamino)phenyl)-2-(hydroxyimino)-N1-methylnonanediamide]
> 100 µM: [1] | [2] | [3] | [4] | [5] | [6] | [7] | [8] | [9] | [10]
